How the values were obtained:
[1] = zero ionic strength; reaction M^2+ + (Gly)^- <-> M(Gly)^+; cited from earlier work
[2] = Particle size; type: physicochemical
Description: The particle size found in Sample 1 and Sample 2 was about 70 mesh.

[3] = Addition to stimulated gastric solution (stability in an acid environment); type: physicochemical; conditions: added to a stimulated gastric solution
Description: Sample 1 was similarly added to a stimulated gastric solution.

[4] = Rubbing a portion between thumb and finger (hygroscopicity); type: physicochemical; conditions: rubbed between the thumb and finger; moisture from thumb, finger and surrounding air
Description: Sample 1 was further compared to Sample 2 by rubbing a portion of each between the thumb and finger.

[5] = Shaking the powder in a plastic bag (electrostatic behaviour); type: physicochemical; conditions: shaken in a plastic bag
Procedure: A 10:1 mixture of copper glycinate to terra alba (CaSO4) [Sample 1] was prepared and shaken together in a plastic bag. Next, a pure copper glycinate without the presence of terra alba [Sample 2] was also prepared and shaken in a plastic bag.

Compound | log of the equilibrium constant [1] | particle size [2] | color change in stimulated gastric solution (stability in acid environment) [3] | hygroscopicity: balling up with moisture [4] | electrostatic behaviour: product sticking to the walls of the bag [5]
copper | 8.56 |  |  |  | 
NCC(=O)[O-].NCC(=O)[O-].[Cu+2] [Sample 2, copper glycinate] |  | about 70 mesh | caused the product to change color | quickly balled up with moisture | a blue haze of product stuck the walls of the bag

Reference: patent publication US6458981B1, “Composition and method for preparing amino acid chelate hydroxides free of interfering ions” (Albion International, Inc., priority 2000, dated 2002)
